Laboratory results reported in ChEMBL document CHEMBL5053556, “Design, Synthesis, and Biological Evaluation of a Novel Series of Teriflunomide Derivatives as Potent Human Dihydroorotate Dehydrogenase Inhibitors for Malignancy Treatment” (J Med Chem, 2021).
Values after ≈ are worked out from the molar mass of the structure shown.

What was measured:
[1] = tested on: Raji; assay: Antiproliferative activity against human Raji cells assessed as cell growth inhibition incubated for 96 hrs by MTT assay; format: functional, cell-based
[2] = tested on: L02; assay: cells; format: ADME, cell-based; details: Homo sapiens, L02, 96 h
Description: Cytotoxicity against human L02 cells assessed as cell growth inhibition incubated for 96 hrs by MTT assay

[3] = tested on: Mus musculus; assay: Toxicity in NOD-SCID mouse xenografted with human Raji cells assessed as body weight loss at 1.5 mg/kg, po administered for 25 days; format: organism-based; details: in vivo, 600 h, time 25 day
[4] = tested on: Raji; assay: animal or person; details: Mus musculus, po, 600 h, read-out: TGI
Description: Antitumor activity against human Raji cells xenografted in NOD-SCID mouse assessed as tumor growth inhibition at 1.5 mg/kg, po administered for 25 days

[5] = target: T1, Dihydroorotate dehydrogenase (quinone), mitochondrial (Homo sapiens, UniProt Q02127)
T1 sequence (Q02127 whole entry): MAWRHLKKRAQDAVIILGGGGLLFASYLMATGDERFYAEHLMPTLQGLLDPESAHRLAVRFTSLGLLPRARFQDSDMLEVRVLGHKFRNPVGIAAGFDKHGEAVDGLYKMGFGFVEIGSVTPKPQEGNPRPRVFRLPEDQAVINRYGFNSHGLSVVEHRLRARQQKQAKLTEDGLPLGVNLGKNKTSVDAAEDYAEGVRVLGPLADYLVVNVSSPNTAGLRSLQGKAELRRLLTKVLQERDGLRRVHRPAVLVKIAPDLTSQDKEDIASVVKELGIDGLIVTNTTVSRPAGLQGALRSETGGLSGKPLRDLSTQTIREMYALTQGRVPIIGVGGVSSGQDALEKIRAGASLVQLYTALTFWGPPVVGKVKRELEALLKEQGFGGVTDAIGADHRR
Description: Inhibition of human DHODH using dihydroorotate substrate preincubated for 30 mins followed by substrate addition by DCIP based microplate reader analysis

[6] = Plasma protein binding in rat at 0.1 uM incubated for 5 hrs by LC-MS analysis; format: ADME, cell-free; details: read-out: PPB (converted)
[7] = Plasma protein binding in rat at 1 uM incubated for 5 hrs by LC-MS analysis; format: ADME, cell-free; details: read-out: PPB (converted)
[8] = Plasma protein binding in rat at 10 uM incubated for 5 hrs by LC-MS analysis; format: ADME, cell-free; details: read-out: PPB (converted)
[9] = Microsomal stability in human liver microsomes assessed as half life at 1 uM measured upto 120 mins in presence of NADPH by LC-MS analysis; format: ADME, Microsome
[10] = Microsomal stability in rat liver microsomes assessed as half life at 1 uM measured upto 120 mins in presence of NADPH by LC-MS analysis; format: ADME, Microsome
[11] = Microsomal stability in mouse liver microsomes assessed as half life at 1 uM measured upto 120 mins in presence of NADPH by LC-MS analysis; format: ADME, Microsome
[12] = Cmax in Sprague-Dawley rat at 15 mg/kg, po measured after 48 hrs by LC-MS analysis; format: ADME, organism-based; parameters: dose 15 mg/kg, time 48 hrs, route po; details: in vivo
[13] = Tmax in Sprague-Dawley rat at 15 mg/kg, po measured after 48 hrs by LC-MS analysis; format: ADME, organism-based; details: in vivo
[14] = Half life in Sprague-Dawley rat at 5 mg/kg, iv measured after 48 hrs by LC-MS analysis; format: ADME, organism-based; details: in vivo
[15] = Half life in Sprague-Dawley rat at 15 mg/kg, po measured after 48 hrs by LC-MS analysis; format: ADME, organism-based; details: in vivo
[16] = Clearance in Sprague-Dawley rat at 5 mg/kg, iv measured after 48 hrs by LC-MS analysis; format: ADME, organism-based; details: Sprague-Dawley, in vivo
[17] = Clearance in Sprague-Dawley rat at 15 mg/kg, po measured after 48 hrs by LC-MS analysis; format: ADME, organism-based; details: in vivo
[18] = AUC(0 to t) in Sprague-Dawley rat at 5 mg/kg, iv measured after 48 hrs by LC-MS analysis; format: ADME, organism-based; parameters: time 48 hrs, dose 5 mg/kg, route iv; details: Sprague-Dawley, in vivo
[19] = AUC(0 to t) in Sprague-Dawley rat at 15 mg/kg, po measured after 48 hrs by LC-MS analysis; format: ADME, organism-based; parameters: dose 15 mg/kg, time 48 hrs, route po; details: in vivo
[20] = Oral bioavailability in Sprague-Dawley rat at 15 mg/kg measured after 48 hrs by LC-MS analysis; format: ADME, organism-based; details: in vivo
[21] = Acute toxicity in BALB/c mouse assessed effect on body weight at 400 mg/kg, po; format: organism-based; details: in vivo
[22] = Acute toxicity in BALB/c mouse assessed change in behavior at 400 mg/kg, po; format: organism-based; details: in vivo
[23] = Acute toxicity in BALB/c mouse assessed effect on feeding at 400 mg/kg, po; format: organism-based; details: in vivo
[24] = tested on: THP-1; assay: Antiproliferative activity against human THP-1 cells assessed as cell growth inhibition incubated for 96 hrs by MTT assay; format: functional, cell-based; details: THP-1, 96 h
[25] = tested on: MV4-11; assay: Antiproliferative activity against human MV4-11 cells assessed as cell growth inhibition incubated for 96 hrs by MTT assay; format: functional, cell-based; details: MV4-11, 96 h
[26] = tested on: HL-60; assay: Antiproliferative activity against human HL-60 cells assessed as cell growth inhibition incubated for 96 hrs by MTT assay; format: functional, cell-based; details: HL-60, 96 h
[27] = tested on: HEL; assay: Antiproliferative activity against human HEL cells assessed as cell growth inhibition incubated for 96 hrs by MTT assay; format: functional, cell-based
[28] = tested on: SUD4; assay: Antiproliferative activity against human SU-DHL-4 cells assessed as cell growth inhibition incubated for 96 hrs by MTT assay; format: functional, cell-based; details: SU-DHL-4, 96 h
[29] = tested on: SU-DHL-6; assay: Antiproliferative activity against human SU-DHL-6 cells assessed as cell growth inhibition incubated for 96 hrs by MTT assay; format: functional, cell-based; details: SU-DHL-6, 96 h
[30] = tested on: Daudi; assay: Antiproliferative activity against human Daudi cells assessed as cell growth inhibition incubated for 96 hrs by MTT assay; format: functional, cell-based
[31] = tested on: Raji; assay: Antitumor activity against human Raji cells xenografted in NOD-SCID mouse assessed as tumor growth inhibition at 40 mg/kg, po administered for 25 days; format: functional; details: 600 h, time 25 day, read-out: TGI
[32] = tested on: Mus musculus; assay: Toxicity in NOD-SCID mouse xenografted with human Raji cells assessed as mortality at 40 mg/kg, po administered for 25 days; format: organism-based; details: in vivo, 600 h, time 25 day
[33] = tested on: Mus musculus; assay: Toxicity in NOD-SCID mouse xenografted with human Raji cells assessed as change in ALT level at 40 mg/kg, po administered for 25 days; format: organism-based; details: in vivo, 600 h, time 25 day
[34] = tested on: Mus musculus; assay: Toxicity in NOD-SCID mouse xenografted with human Raji cells assessed as change in AST level at 40 mg/kg, po administered for 25 days; format: organism-based; details: in vivo, 600 h, time 25 day
[35] = tested on: Mus musculus; assay: Toxicity in NOD-SCID mouse xenografted with human Raji cells assessed as change in uric acid level at 40 mg/kg, po administered for 25 days; format: organism-based; details: in vivo, 600 h, time 25 day
[36] = tested on: Mus musculus; assay: Toxicity in NOD-SCID mouse xenografted with human Raji cells assessed as change in UREAL at 40 mg/kg, po administered for 25 days; format: organism-based; details: in vivo, 600 h, time 25 day
[37] = Acute toxicity in BALB/c mouse assessed as effect on liver at 400 mg/kg, po measured on day 14 by H and E staining based assay; format: organism-based; details: in vivo, 336 h, time 14 day
[38] = Acute toxicity in BALB/c mouse assessed as effect on lung at 400 mg/kg, po measured on day 14 by H and E staining based assay; format: organism-based; details: in vivo, 336 h, time 14 day
[39] = Acute toxicity in BALB/c mouse assessed as effect on kidney at 400 mg/kg, po measured on day 14 by H and E staining based assay; format: organism-based; details: in vivo, 336 h, time 14 day
[40] = Acute toxicity in BALB/c mouse assessed as effect on heart at 400 mg/kg, po measured on day 14 by H and E staining based assay; format: organism-based; details: in vivo, 336 h, time 14 day
[41] = Acute toxicity in BALB/c mouse assessed as effect on spleen at 400 mg/kg, po measured on day 14 by H and E staining based assay; format: organism-based; details: in vivo, 336 h, time 14 day
[42] = target: T1, Dihydroorotate dehydrogenase (quinone), mitochondrial; details: dose 100.0 nM, time 30.0 min
[43] = physchem; details: aqueous
Description: Aqueous solubility of compound by UPLC method

[44] = in vitro; details: human, L02 cells and Raji cells
Description: Selectivity index, ratio of IC50 for human L02 cells to IC50 for human Raji cells

[45] = in vitro; details: human, Caco-2
Description: Apparent permeability across apical to basolateral side in human Caco-2 cells incubated for 90 mins by LC-MS analysis

[46] = in vitro; details: human, Caco-2; remark: listed apart in the source
Description: Apparent permeability across basolateral to apical side in human Caco-2 cells incubated for 90 mins by LC-MS analysis

[47] = in vitro; details: human, Caco-2; remark: listed apart in the source
Description: Efflux ratio of apparent permeability across basolateral to apical side over apical to basolateral side in human Caco-2 cells

Compound: CCn1c(CO)nn(-c2cc(O[C@@H](C)C(F)(F)F)c(C(=O)Nc3c(F)cccc3Cl)cc2F)c1=O
- IC50 [1]: 0.4 nM
- IC50 [2]: 1.1 nM
- Activity [3]: Toxic
- inhibition in vivo at 1.5 mg/kg [4]: 79%

Compound: C/C(O)=C(\C#N)C(=O)Nc1cc(O[C@@H](C)C(F)(F)F)c(C(=O)Nc2c(F)cccc2Cl)cc1F
- IC50 [5]: 6.9 nM
- IC50 [1]: 13.7 nM
- IC50 [2]: 511 nM
- fraction unbound at 5 h, 0.1 µM [6]: 0.278
- fraction unbound at 5 h, 1 µM [7]: 0.057
- fraction unbound at 5 h, 10 µM [8]: 0.017
- half-life at 1 µM [9]: 2.31 h
- half-life at 1 µM [10]: 0.77 h
- half-life at 1 µM [11]: 2.46 h
- Cmax [12]: 1320 ng/mL
- Tmax [13]: 12 h
- half-life [14]: 4.6 h
- half-life [15]: 8.7 h
- clearance [16]: 5 mL/min/kg
- CL/F [17]: 11.7 mL/min/kg
- AUC(0-t) at 48 h [18]: 21500 ng·h/mL
- AUC(0-t) at 48 h [19]: 21100 ng·h/mL
- bioavailability [20]: 32.8%
- Activity [21]: Non-Toxic
- Activity [22]: Non-Toxic
- Activity [23]: Non-Toxic
- IC50 [24]: 20 nM
- IC50 [25]: 20 nM
- IC50 [26]: 20 nM
- IC50 [27]: 20 nM
- IC50 [28]: 20 nM
- IC50 [29]: 20 nM
- IC50 [30]: 20 nM
- inhibition in vivo at 40 mg/kg [31]: 73.1%
- Activity [32]: Non-Toxic
- Activity [33]: Non-Toxic
- Activity [34]: Non-Toxic
- Activity [35]: Non-Toxic
- Activity [36]: Non-Toxic
- Activity [37]: Non-Toxic
- Activity [38]: Non-Toxic
- Activity [39]: Non-Toxic
- Activity [40]: Non-Toxic
- Activity [41]: Non-Toxic
- inhibition [42]: 93.6%
- solubility [43]: 5200 µg/mL (≈ 10.3 mM)
- selectivity ratio [44]: 37.2
- Papp A→B at 1.5 h [45]: 0.29 ×10⁻⁶ cm/s
- Papp B→A at 1.5 h [46]: 2.04 ×10⁻⁶ cm/s
- efflux ratio [47]: 7
